Laboratory results as given in the supplement of paper PMC10307832.

Key:
Assay in all cases: relative viability (nuclei count vs DMSO), 5 days (fraction); higher = more cells survive
Mirin + Decitabine = compound: N=C1NC(=O)/C(=C/c2ccc(O)cc2)S1 [Mirin] + Nc1ncn([C@H]2C[C@H](O)[C@@H](CO)O2)c(=O)n1 [Decitabine] (partner 2 µM)
How it was run: (§1)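 Lung cancer cell lines, seeded in 1536-well plates, were treated the following day by pin tool with a single drug or with five library-drug doses (not always all listed) in √10 steps on top of a fixed anchor-drug dose. Cells were fixed and nuclei stained in one step after 5 days, and nuclei were counted. Relative viability is the nuclei count for treated wells divided by that for vehicle wells, reported as medians of duplicate plates.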

Mirin + Alpelisib = compound: N=C1NC(=O)/C(=C/c2ccc(O)cc2)S1 [Mirin] + Cc1nc(NC(=O)N2CCC[C@H]2C(N)=O)sc1-c1ccnc(C(C)(C)C(F)(F)F)c1 [Alpelisib] (partner 2 µM)
How it was run: as §1

[1] = compound: CCn1c(-c2nonc2N)nc2cnc(Oc3cccc(NC(=O)c4ccc(OCCN5CCOCC5)cc4)c3)cc21 + Cc1cc(Nc2cc(N3CCN(C)CC3)nc(Sc3ccc(NC(=O)C4CC4)cc3)n2)n[nH]1 [Tozasertib] (partner 0.1 µM)
How it was run: as §1

Mirin + Palbociclib = compound: N=C1NC(=O)/C(=C/c2ccc(O)cc2)S1 [Mirin] + CC(=O)c1c(C)c2cnc(Nc3ccc(N4CCNCC4)cn3)nc2n(C2CCCC2)c1=O [Palbociclib] (partner 0.5 µM)
How it was run: as §1

H3255
relative viability (Mirin + Decitabine; first compound 0.25 µM): 0.595
relative viability (Mirin + Decitabine; first compound 0.7906 µM): 0.577
relative viability (Mirin + Decitabine; first compound 2.5 µM): 0.649
relative viability (Mirin + Decitabine; first compound 7.906 µM): 0.467
relative viability (Mirin + Decitabine; first compound 25 µM): 0.758
relative viability (Mirin + Alpelisib; first compound 0.25 µM): 0.719
relative viability (Mirin + Alpelisib; first compound 0.7906 µM): 0.814
relative viability (Mirin + Alpelisib; first compound 2.5 µM): 0.674
relative viability (Mirin + Alpelisib; first compound 7.906 µM): 0.576
relative viability (Mirin + Alpelisib; first compound 25 µM): 0.92
relative viability ([1]; first compound 0.04 µM): 0.758
relative viability ([1]; first compound 0.1265 µM): 0.5
relative viability ([1]; first compound 0.4 µM): 0.706
relative viability ([1]; first compound 1.265 µM): 0.377
relative viability ([1]; first compound 4 µM): 0.325
relative viability (Mirin + Palbociclib; first compound 0.25 µM): 0.308
relative viability (Mirin + Palbociclib; first compound 0.7906 µM): 0.309
relative viability (Mirin + Palbociclib; first compound 2.5 µM): 0.298
relative viability (Mirin + Palbociclib; first compound 7.906 µM): 0.323
relative viability (Mirin + Palbociclib; first compound 25 µM): 0.328

EMC-BAC-2
relative viability (Mirin + Decitabine; first compound 0.25 µM): 0.997
relative viability (Mirin + Decitabine; first compound 0.7906 µM): 1.02
relative viability (Mirin + Decitabine; first compound 2.5 µM): 0.977
relative viability (Mirin + Decitabine; first compound 7.906 µM): 0.949
relative viability (Mirin + Decitabine; first compound 25 µM): 1.09
relative viability (Mirin + Alpelisib; first compound 0.25 µM): 0.771
relative viability (Mirin + Alpelisib; first compound 0.7906 µM): 0.838
relative viability (Mirin + Alpelisib; first compound 2.5 µM): 0.756
relative viability (Mirin + Alpelisib; first compound 7.906 µM): 0.698
relative viability (Mirin + Alpelisib; first compound 25 µM): 0.685
relative viability ([1]; first compound 0.04 µM): 0.231
relative viability ([1]; first compound 0.1265 µM): 0.283
relative viability ([1]; first compound 0.4 µM): 0.249
relative viability ([1]; first compound 1.265 µM): 0.165
relative viability ([1]; first compound 4 µM): 0.155
relative viability (Mirin + Palbociclib; first compound 0.25 µM): 0.485
relative viability (Mirin + Palbociclib; first compound 0.7906 µM): 0.515
relative viability (Mirin + Palbociclib; first compound 2.5 µM): 0.52
relative viability (Mirin + Palbociclib; first compound 7.906 µM): 0.4
relative viability (Mirin + Palbociclib; first compound 25 µM): 0.502

NCI-H661
relative viability (Mirin + Decitabine; first compound 0.25 µM): 0.587
relative viability (Mirin + Decitabine; first compound 0.7906 µM): 0.569
relative viability (Mirin + Decitabine; first compound 2.5 µM): 0.539
relative viability (Mirin + Decitabine; first compound 7.906 µM): 0.501
relative viability (Mirin + Decitabine; first compound 25 µM): 0.525
relative viability (Mirin + Alpelisib; first compound 0.25 µM): 0.657
relative viability (Mirin + Alpelisib; first compound 0.7906 µM): 0.554
relative viability (Mirin + Alpelisib; first compound 2.5 µM): 0.612
relative viability (Mirin + Alpelisib; first compound 7.906 µM): 0.323
relative viability (Mirin + Alpelisib; first compound 25 µM): 0.602
relative viability ([1]; first compound 0.04 µM): 0.377
relative viability ([1]; first compound 0.1265 µM): 0.367
relative viability ([1]; first compound 0.4 µM): 0.37
relative viability ([1]; first compound 1.265 µM): 0.372
relative viability ([1]; first compound 4 µM): 0.266
relative viability (Mirin + Palbociclib; first compound 0.25 µM): 0.416
relative viability (Mirin + Palbociclib; first compound 0.7906 µM): 0.426
relative viability (Mirin + Palbociclib; first compound 2.5 µM): 0.406
relative viability (Mirin + Palbociclib; first compound 7.906 µM): 0.369
relative viability (Mirin + Palbociclib; first compound 25 µM): 0.401

SK-MES-1
relative viability (Mirin + Decitabine; first compound 0.25 µM): 0.347
relative viability (Mirin + Decitabine; first compound 0.7906 µM): 0.446
relative viability (Mirin + Decitabine; first compound 2.5 µM): 0.372
relative viability (Mirin + Decitabine; first compound 7.906 µM): 0.292
relative viability (Mirin + Decitabine; first compound 25 µM): 0.329
relative viability (Mirin + Alpelisib; first compound 0.25 µM): 0.976
relative viability (Mirin + Alpelisib; first compound 0.7906 µM): 0.908
relative viability (Mirin + Alpelisib; first compound 2.5 µM): 0.994
relative viability (Mirin + Alpelisib; first compound 7.906 µM): 0.969
relative viability (Mirin + Alpelisib; first compound 25 µM): 0.798
relative viability ([1]; first compound 0.04 µM): 0.811
relative viability ([1]; first compound 0.1265 µM): 0.657
relative viability ([1]; first compound 0.4 µM): 0.518
relative viability ([1]; first compound 1.265 µM): 0.228
relative viability ([1]; first compound 4 µM): 0.21
relative viability (Mirin + Palbociclib; first compound 0.25 µM): 0.305
relative viability (Mirin + Palbociclib; first compound 0.7906 µM): 0.338
relative viability (Mirin + Palbociclib; first compound 2.5 µM): 0.303
relative viability (Mirin + Palbociclib; first compound 7.906 µM): 0.3
relative viability (Mirin + Palbociclib; first compound 25 µM): 0.451

NCI-H1355
relative viability (Mirin + Decitabine; first compound 0.25 µM): 0.365
relative viability (Mirin + Decitabine; first compound 0.7906 µM): 0.367
relative viability (Mirin + Decitabine; first compound 2.5 µM): 0.391
relative viability (Mirin + Decitabine; first compound 7.906 µM): 0.38
relative viability (Mirin + Decitabine; first compound 25 µM): 0.365
relative viability (Mirin + Alpelisib; first compound 0.25 µM): 0.858
relative viability (Mirin + Alpelisib; first compound 0.7906 µM): 0.864
relative viability (Mirin + Alpelisib; first compound 2.5 µM): 0.754
relative viability (Mirin + Alpelisib; first compound 7.906 µM): 0.915
relative viability (Mirin + Alpelisib; first compound 25 µM): 0.727
relative viability ([1]; first compound 0.04 µM): 0.654
relative viability ([1]; first compound 0.1265 µM): 0.652
relative viability ([1]; first compound 0.4 µM): 0.582
relative viability ([1]; first compound 1.265 µM): 0.563
relative viability ([1]; first compound 4 µM): 0.569
relative viability (Mirin + Palbociclib; first compound 0.25 µM): 0.395
relative viability (Mirin + Palbociclib; first compound 0.7906 µM): 0.427
relative viability (Mirin + Palbociclib; first compound 2.5 µM): 0.41
relative viability (Mirin + Palbociclib; first compound 7.906 µM): 0.412
relative viability (Mirin + Palbociclib; first compound 25 µM): 0.443

PC-14
relative viability (Mirin + Decitabine; first compound 0.25 µM): 0.2
relative viability (Mirin + Decitabine; first compound 0.7906 µM): 0.24
relative viability (Mirin + Decitabine; first compound 2.5 µM): 0.232
relative viability (Mirin + Decitabine; first compound 7.906 µM): 0.225
relative viability (Mirin + Decitabine; first compound 25 µM): 0.205
relative viability (Mirin + Alpelisib; first compound 0.25 µM): 0.83
relative viability (Mirin + Alpelisib; first compound 0.7906 µM): 0.915
relative viability (Mirin + Alpelisib; first compound 2.5 µM): 1.01
relative viability (Mirin + Alpelisib; first compound 7.906 µM): 0.95
relative viability (Mirin + Alpelisib; first compound 25 µM): 1.05
relative viability ([1]; first compound 0.04 µM): 0.691
relative viability ([1]; first compound 0.1265 µM): 0.47
relative viability ([1]; first compound 0.4 µM): 0.422
relative viability ([1]; first compound 1.265 µM): 0.326
relative viability ([1]; first compound 4 µM): 0.321
relative viability (Mirin + Palbociclib; first compound 0.25 µM): 0.528
relative viability (Mirin + Palbociclib; first compound 0.7906 µM): 0.558
relative viability (Mirin + Palbociclib; first compound 2.5 µM): 0.508
relative viability (Mirin + Palbociclib; first compound 7.906 µM): 0.512
relative viability (Mirin + Palbociclib; first compound 25 µM): 0.522
